Laboratory results from patent publication US5411984A, “Water soluble analogs and prodrugs of taxol” (Virginia Tech Intellectual Properties, Inc., priority 1992, dated 1995).

Legend:
[1] = Deutsch et al.; cited from earlier work
[2] = Magri and Kingston; cited from earlier work
[3] = cited from earlier work
[4] = cited from earlier work; remark: listed apart in the source
[5] = cited from earlier work; remark: listed apart in the source
P-388 = details: cited from earlier work
[6] = Relative solubility by the 1-octanol and water partition method (UV absorption at 228 nm), taxol = 1
Experimental: In separate experiments, taxol derivative 4 and 2'-succinyl taxol (R=NaO2 CCH2 CH2 CO2) were dissolved in a mildly basic aqueous solution.
*Solubilities were determined by using the 1octanol and water partition
method.Sample concentrations in water were determined by UV absorptions a […]

[7] = Stability in pH 5 buffer / mildly acidic aqueous solution (HPLC or TLC, onset of cloudiness); format: physicochemical; details: method (b): 0.5 mg in 0.1 ml EtOH and 0.9 ml pH 5 buffer, room temperature
Experimental: **Stabilities were determined in pH 5 buffer solution by one of the two
methods indicated below.
(a) 9.5 mg of sample was dissolved in 0.2 ml of EtOH and 0.2 ml of pH 5
buffer solution and let stand at room temperature. The progress of
decomposition was checked by HPLC or TLC and observation of the onset of
(b) 0.5 mg of sample was dissolved in 0.1 ml of EtOH and 0.9 ml of pH 5
buffer solution, the other conditions were the same as in (a) above. All
samples were stable under these conditions for at least 24 hours. No
hydrolysis was detectable by HPLC or TLC during this time period.

Solubility in pure water = format: physicochemical
metastatic breast cancer = details: in vivo; cited from earlier work
tubulin = details: cited from earlier work
[8] = Cremophor EL diluent, without prolonged infusion and premedication with antiallergic drugs; cited from earlier work
[9] = test system: drug-refractory ovarian cancer; details: in vivo; cited from earlier work

CC(=O)O[C@H]1C(=O)[C@@]2(C)[C@H]([C@H](OC(=O)c3ccccc3)[C@]3(O)C[C@H](OC(=O)[C@H](OC(=O)CCCC(=O)NCCCN(C)C)[C@@H](NC(=O)c4ccccc4)c4ccccc4)C(C)=C1C3(C)C)[C@]1(OC(C)=O)CO[C@@H]1C[C@@H]2O
antitumor activity [1]: good solubility and bioactivity

CC(=O)O[C@H]1C(=O)[C@@]2(C)[C@H]([C@H](OC(=O)c3ccccc3)[C@]3(O)C[C@H](OC(=O)[C@H](O[Si](C)(C)C(C)(C)C)[C@@H](NC(=O)c4ccccc4)c4ccccc4)C(C)=C1C3(C)C)[C@]1(OC(C)=O)CO[C@@H]1C[C@@H]2O [2'-(t-butyldimethylsilyl) taxol]
biological activity [2]: essentially inactive

CC(=O)O[C@H]1C(=O)[C@@]2(C)[C@H]([C@H](OC(=O)c3ccccc3)[C@]3(O)C[C@H](OC(=O)[C@H](OC(C)=O)[C@@H](NC(=O)c4ccccc4)c4ccccc4)C(C)=C1C3(C)C)[C@]1(OC(C)=O)CO[C@@H]1C[C@@H]2O [2'-acetyltaxol]
hydrolysis of acyl substituents under in vivo conditions [3]: readily hydrolyzed

CC(=O)O[C@H]1C(=O)[C@@]2(C)[C@H]([C@H](OC(=O)c3ccccc3)[C@]3(O)C[C@H](OC(=O)[C@H](OC(=O)CCN)[C@@H](NC(=O)c4ccccc4)c4ccccc4)C(C)=C1C3(C)C)[C@]1(OC(C)=O)CO[C@@H]1C[C@@H]2O [Compound 1, 2'-(β-alanyl)-taxol]
aqueous solubility [4]: increased water solubility | in vivo activity [5]: active in vivo

CC(=O)O[C@H]1C(=O)[C@@]2(C)[C@H]([C@H](OC(=O)c3ccccc3)[C@]3(O)C[C@H](OC(=O)[C@H](OC(=O)CCC(=O)O)[C@@H](NC(=O)c4ccccc4)c4ccccc4)C(C)=C1C3(C)C)[C@]1(OC(C)=O)CO[C@@H]1C[C@@H]2O [Compound 2, 2'-succinyltaxol]
P-388 in vivo activity compared with taxol (P-388): diminished | aqueous solubility [4]: increased water solubility

CC(=O)O[C@H]1C(=O)[C@@]2(C)[C@H]([C@H](OC(=O)c3ccccc3)[C@]3(O)C[C@H](OC(=O)[C@H](OC(=O)c4cc(C(=O)O)c(C(=O)O)cc4C(=O)O)[C@@H](NC(=O)c4ccccc4)c4ccccc4)C(C)=C1C3(C)C)[C@]1(OC(C)=O)CO[C@@H]1C[C@@H]2O [Compound 9b, Taxol 2'-(trisodium 1,2,4,5-benzenetetracarboxylate)]
times more water soluble than taxol ([6]; compared with taxol): more than 1500 times | Stabilities at pH 5 [7]: > 24 h | solubility (Solubility in pure water): > 227 mg/mL

CC(=O)O[C@H]1C(=O)[C@@]2(C)[C@H]([C@H](OC(=O)c3ccccc3)[C@]3(O)C[C@H](OC(=O)[C@H](O)[C@@H](NC(=O)c4ccccc4)c4ccccc4)C(C)=C1C3(C)C)[C@]1(OC(C)=O)CO[C@@H]1C[C@@H]2O [Taxol]
clinical activity in metastatic breast cancer (metastatic breast cancer): active drug | aqueous solubility [4]: low water solubility | Relative Solubility (p') [6]: 1 | effect on depolymerization of tubulin (tubulin): prevents depolymerization of the tubulin | effect on microtubule / tubulin polymer formation (tubulin): promotes formation of microtubules | allergic reactions [8]: severe allergic reactions and even death | clinical activity against drug-refractory ovarian cancer [9]: excellent clinical activity
